Data from BindingDB's records for doi:10.1021/acschembio.7b00707 (Istituto Italiano di Tecnologia, 2017).

Biological target: Breast cancer type 2 susceptibility protein/DNA repair protein RAD51 homolog 1 (Homo sapiens, UniProt P51587+Q06609)
Assay: ELISA assay
Text: This assay is an efficient tool for directly measuring inhibition of the BRC4−Rad51 interaction, at a molecular level, which is described by Rajendra et al.

Chain of Breast cancer type 2 susceptibility protein/DNA repair protein RAD51 homolog 1 (P51587 whole entry V2466A): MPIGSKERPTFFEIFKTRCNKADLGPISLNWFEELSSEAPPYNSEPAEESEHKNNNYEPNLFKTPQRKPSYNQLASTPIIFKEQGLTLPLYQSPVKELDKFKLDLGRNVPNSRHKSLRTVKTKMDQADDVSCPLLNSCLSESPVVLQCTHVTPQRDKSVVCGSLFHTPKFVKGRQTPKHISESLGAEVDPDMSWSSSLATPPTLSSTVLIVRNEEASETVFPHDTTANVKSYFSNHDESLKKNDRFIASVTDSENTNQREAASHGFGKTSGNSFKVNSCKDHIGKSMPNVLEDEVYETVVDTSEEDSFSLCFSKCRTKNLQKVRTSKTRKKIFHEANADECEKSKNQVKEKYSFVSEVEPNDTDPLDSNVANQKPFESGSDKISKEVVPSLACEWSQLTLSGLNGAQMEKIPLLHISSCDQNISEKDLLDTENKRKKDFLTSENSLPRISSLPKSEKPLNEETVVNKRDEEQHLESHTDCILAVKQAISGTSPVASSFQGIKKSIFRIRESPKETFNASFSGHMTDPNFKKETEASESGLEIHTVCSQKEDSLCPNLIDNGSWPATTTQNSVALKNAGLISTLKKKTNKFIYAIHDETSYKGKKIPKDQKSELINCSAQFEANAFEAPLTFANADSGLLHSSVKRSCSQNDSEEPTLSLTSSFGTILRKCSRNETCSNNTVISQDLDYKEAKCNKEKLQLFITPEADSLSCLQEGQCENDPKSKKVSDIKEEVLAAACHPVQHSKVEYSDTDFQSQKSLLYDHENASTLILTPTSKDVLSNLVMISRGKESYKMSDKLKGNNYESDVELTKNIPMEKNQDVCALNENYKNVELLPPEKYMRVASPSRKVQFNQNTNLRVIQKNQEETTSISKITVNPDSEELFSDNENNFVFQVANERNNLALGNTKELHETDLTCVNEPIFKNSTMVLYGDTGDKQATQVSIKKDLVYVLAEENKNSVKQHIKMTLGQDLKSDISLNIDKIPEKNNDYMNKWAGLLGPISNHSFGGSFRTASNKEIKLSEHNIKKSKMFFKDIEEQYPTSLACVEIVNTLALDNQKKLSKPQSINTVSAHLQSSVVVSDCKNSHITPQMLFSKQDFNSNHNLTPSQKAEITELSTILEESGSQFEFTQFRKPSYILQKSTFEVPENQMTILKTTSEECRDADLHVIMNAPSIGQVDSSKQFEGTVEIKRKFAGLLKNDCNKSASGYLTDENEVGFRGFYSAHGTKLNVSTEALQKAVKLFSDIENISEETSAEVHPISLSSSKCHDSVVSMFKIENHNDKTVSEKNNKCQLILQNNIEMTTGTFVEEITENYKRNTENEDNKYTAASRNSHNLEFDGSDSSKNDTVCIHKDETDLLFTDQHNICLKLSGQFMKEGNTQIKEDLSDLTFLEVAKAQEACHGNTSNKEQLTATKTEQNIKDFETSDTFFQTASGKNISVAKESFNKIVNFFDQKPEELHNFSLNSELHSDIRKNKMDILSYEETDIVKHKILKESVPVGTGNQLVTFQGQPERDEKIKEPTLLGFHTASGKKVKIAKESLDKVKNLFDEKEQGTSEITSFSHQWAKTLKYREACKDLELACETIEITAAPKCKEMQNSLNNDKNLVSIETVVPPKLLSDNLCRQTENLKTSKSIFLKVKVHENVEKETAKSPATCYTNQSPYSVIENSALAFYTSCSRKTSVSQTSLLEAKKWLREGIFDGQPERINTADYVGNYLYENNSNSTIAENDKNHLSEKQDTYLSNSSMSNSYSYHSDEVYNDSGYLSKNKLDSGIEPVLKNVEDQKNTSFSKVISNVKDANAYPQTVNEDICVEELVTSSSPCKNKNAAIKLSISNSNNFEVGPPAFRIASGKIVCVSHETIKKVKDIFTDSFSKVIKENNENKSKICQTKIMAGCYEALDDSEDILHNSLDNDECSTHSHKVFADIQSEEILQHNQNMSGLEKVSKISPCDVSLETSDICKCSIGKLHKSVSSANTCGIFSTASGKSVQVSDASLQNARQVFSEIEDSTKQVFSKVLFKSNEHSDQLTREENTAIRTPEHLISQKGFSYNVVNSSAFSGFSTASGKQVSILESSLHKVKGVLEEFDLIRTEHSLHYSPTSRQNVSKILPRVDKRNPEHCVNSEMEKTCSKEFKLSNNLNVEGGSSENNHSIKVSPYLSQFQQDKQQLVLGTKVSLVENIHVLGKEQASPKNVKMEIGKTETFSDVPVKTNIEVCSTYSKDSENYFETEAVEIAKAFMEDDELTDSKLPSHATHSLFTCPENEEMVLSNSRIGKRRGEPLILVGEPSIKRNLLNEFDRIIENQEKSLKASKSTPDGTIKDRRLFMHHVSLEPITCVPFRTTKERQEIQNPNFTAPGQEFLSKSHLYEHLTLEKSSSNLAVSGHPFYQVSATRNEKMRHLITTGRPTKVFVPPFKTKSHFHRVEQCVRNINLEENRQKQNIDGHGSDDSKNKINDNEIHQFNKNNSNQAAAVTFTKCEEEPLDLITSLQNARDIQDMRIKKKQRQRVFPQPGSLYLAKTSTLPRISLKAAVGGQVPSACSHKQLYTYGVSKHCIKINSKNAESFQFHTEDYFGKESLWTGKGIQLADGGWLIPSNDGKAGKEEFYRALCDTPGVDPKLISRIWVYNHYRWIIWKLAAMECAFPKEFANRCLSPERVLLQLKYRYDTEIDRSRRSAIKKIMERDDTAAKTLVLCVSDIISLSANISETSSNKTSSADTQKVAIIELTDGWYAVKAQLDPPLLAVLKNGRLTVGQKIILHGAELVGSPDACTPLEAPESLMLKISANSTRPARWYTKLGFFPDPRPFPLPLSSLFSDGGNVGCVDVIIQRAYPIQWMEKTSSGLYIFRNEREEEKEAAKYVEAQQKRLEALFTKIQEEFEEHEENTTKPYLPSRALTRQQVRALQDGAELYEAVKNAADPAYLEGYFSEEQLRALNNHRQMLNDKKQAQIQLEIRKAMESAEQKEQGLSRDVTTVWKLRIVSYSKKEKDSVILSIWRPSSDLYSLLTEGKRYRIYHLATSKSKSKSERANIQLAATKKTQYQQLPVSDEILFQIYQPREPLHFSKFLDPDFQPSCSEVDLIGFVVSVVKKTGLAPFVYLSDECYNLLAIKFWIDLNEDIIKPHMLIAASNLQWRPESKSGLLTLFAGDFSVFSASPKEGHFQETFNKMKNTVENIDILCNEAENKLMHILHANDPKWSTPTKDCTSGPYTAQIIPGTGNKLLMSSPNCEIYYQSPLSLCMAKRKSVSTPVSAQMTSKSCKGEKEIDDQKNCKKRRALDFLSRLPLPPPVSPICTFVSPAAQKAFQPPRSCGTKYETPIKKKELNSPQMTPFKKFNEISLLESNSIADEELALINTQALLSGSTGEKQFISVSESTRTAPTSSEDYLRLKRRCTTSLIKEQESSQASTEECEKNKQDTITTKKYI
Chain of Breast cancer type 2 susceptibility protein/DNA repair protein RAD51 homolog 1 (Q06609 whole entry): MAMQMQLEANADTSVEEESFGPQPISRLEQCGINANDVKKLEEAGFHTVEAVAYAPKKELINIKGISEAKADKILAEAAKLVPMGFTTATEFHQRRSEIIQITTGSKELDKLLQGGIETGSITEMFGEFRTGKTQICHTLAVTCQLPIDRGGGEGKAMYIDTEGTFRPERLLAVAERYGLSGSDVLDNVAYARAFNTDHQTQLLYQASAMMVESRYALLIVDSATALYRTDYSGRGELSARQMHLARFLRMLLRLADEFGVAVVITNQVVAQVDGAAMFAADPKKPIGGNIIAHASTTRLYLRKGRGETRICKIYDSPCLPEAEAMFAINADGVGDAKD

Row | SMILES | EC50
1 | O=C(CSc1nnc(Cn2c(=O)sc3ccccc32)n1CCc1ccccc1)NC1CCCC1 [F0665-0303] | 53 µM
2 | O=C(CSc1nnc(Cn2c(=O)sc3ccccc32)n1CCCc1ccccc1)NC1CCCC1 [N-cyclopentyl-2-((5-((2-oxobenzo[d]thiazol-3(2H)-yl)methyl)-4-phenpropyl-4H-1,2,4-triazol-3-yl)thio)acetamide] | 25 µM
